BigSolDB 2.1

C[C@@H]1CC[C@H]2[C@@H](C)C(=O)O[C@@H]3O[C@@]4(C)CC[C@@H]1[C@]32OO4
solubility (mole fraction)
Conditions	284.15 K	289.15 K	295.15 K	298.15 K	304.15 K	309.15 K	314.15 K	319.15 K	323.15 K
in 2-butanone	0.0163	0.0212	0.0292	0.0337	0.046	0.0585	0.0762	0.0919	0.117
in MTBE	0.00109	0.00154	0.00234	0.00285	0.00421	0.00579	0.0079	0.0107	0.0136
in acetone	0.00405	0.0053	0.0073	0.00848	0.0115	0.0147	0.0187	0.0236	0.0284
in acetonitrile	0.00084	0.00112	0.00157	0.00184	0.00254	0.00329	0.00424	0.00544	0.00661
in ethanol	0.00236	0.00305	0.00412	0.00475	0.00631	0.00796	0.01	0.0125	0.0149
in ethyl acetate	0.00557	0.00784	0.0118	0.0142	0.0208	0.0283	0.0383	0.0514	0.0647
in isopropyl acetate	0.00683	0.00838	0.0107	0.012	0.015	0.0182	0.0218	0.0261	0.0301
in methanol	0.00056	0.00078	0.00117	0.00142	0.00207	0.00281	0.0038	0.00508	0.00639
in n-butanol	0.00085	0.00127	0.00203	0.00253	0.00394	0.00563	0.00799	0.0112	0.0147
in n-heptane	5.1e-05	7.2e-05	0.000113	0.00013	0.000202	0.000282	0.000383	0.000531	0.000684
in n-hexane	5e-05	7e-05	0.000111	0.000132	0.000201	0.00028	0.000381	0.000534	0.000681
in toluene	0.017	0.0226	0.0316	0.0369	0.0507	0.0656	0.0843	0.108	0.131
